# According to patent US7928060B2, “Amylin family polypeptide-6 (AFP-6) analogs and methods of making and using them” (Amylin Pharmaceuticals, Inc., priority 2004, dated 2011):
# pIC50: −log10 of the molar value. Where two headings read alike, the source gives them in different places. Bridge positions count the residues as written; N and C are the ends. Ends that are not written are not given here. Peptide text beside a SMILES is read from it.
# Experiments:
# [1] = molecular target: T1, amylin receptors (Rattus norvegicus, UniProt P32214); test: amylin radioligand binding assay (125I-rat amylin, nucleus accumbens membranes); settings: Table 6; read-out: Amylin receptor binding
# T1 construct: This basal forebrain tissue, containing the nucleus accumbens and surrounding regions, was weighed and homogenized; from tissue; host or cells: rat basal forebrain (nucleus accumbens) membranes, male Sprague-Dawley rats
# T1 sequence (P32214 25-516): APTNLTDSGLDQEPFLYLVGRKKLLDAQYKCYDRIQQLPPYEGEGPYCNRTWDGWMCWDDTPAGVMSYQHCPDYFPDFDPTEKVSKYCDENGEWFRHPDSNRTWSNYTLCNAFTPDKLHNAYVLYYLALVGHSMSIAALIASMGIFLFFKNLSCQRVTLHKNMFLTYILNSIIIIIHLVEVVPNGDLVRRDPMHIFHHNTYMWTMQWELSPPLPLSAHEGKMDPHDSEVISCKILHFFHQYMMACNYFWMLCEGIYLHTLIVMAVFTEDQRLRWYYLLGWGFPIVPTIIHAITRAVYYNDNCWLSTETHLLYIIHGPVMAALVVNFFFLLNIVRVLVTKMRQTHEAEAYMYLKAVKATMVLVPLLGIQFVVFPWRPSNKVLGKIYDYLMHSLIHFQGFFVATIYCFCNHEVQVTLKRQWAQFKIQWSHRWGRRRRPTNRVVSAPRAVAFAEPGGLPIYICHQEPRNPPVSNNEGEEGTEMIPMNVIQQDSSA
# Description: Unlabeled peptides were obtained from BACHEM Inc. (Torrance, Calif.).
# Male Sprague-Dawley® rats (200-250) grams were sacrificed by decapitation. Brains were removed and place in cold phosphate-buffered saline (PBS). From the ventral surface, cuts were made rostral to the hypothalamus, bounded laterally by the olfactory tracts and extending at a 45° angle medially from these tracts. […] Membranes were washed three times in fresh buffer by centrifugation for 15 minutes at 48,000×g. The final membrane pellet was resuspended in 20 mM HEPES buffer containing 0.2 mM phenylmethylsulfonyl fluoride (PMSF).
# Solutions were incubated for 60 minutes at 2 C. […] Filters were washed immediately before filtration with 5 ml cold PBS, and immediately after filtration with 15 ml cold PBS. […] Competition curves were generated by measuring binding in the presence of 10^−12 to 10^−6 M unlabeled test compound and were analyzed by nonlinear regression using a 4-parameter logistic equation (INPLOT program; […] Software, San Diego, Calif.).
# [2] = molecular target: T2, CGRP receptors (Homo sapiens, UniProt O60894+Q16602); test: CGRP radioligand binding assay (125I-hCGRP, SK-N-MC cell membranes)
# T2 construct: membranes prepared from SK-N-MC cells, known to express CGRP receptors; endogenous in cells; host or cells: SK-N-MC cell membranes
# T2 sequence (Q16602 23-461): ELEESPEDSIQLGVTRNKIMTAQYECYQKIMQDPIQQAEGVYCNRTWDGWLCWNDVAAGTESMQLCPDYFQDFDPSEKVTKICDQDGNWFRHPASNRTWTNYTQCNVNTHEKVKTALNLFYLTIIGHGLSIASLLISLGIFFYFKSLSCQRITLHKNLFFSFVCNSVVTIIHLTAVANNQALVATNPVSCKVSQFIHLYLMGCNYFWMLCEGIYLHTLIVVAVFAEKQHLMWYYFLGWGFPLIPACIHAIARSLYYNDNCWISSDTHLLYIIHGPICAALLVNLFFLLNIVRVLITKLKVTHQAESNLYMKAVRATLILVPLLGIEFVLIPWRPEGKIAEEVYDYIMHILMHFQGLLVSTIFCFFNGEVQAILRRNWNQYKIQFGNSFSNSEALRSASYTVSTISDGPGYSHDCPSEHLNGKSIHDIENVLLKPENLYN
# T2 sequence (O60894 27-148): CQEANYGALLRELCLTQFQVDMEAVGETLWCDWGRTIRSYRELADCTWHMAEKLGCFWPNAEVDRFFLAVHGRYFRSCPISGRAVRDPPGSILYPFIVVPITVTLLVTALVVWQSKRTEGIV
# [3] = molecular target: T3, calcitonin receptor (Rattus norvegicus, UniProt P32214); test: calcitonin receptor binding assay (rCalcitonin RBA); settings: Table 6; read-out: CT receptor binding
# T3 sequence (P32214 25-516): T1 sequence (P32214 25-516)
# [4] = molecular target: adrenomedullin receptor (Homo sapiens, UniProt O60895+Q16602); test: adrenomedullin (ADM) receptor binding assay; settings: Table 6
# Chain of adrenomedullin receptor (Q16602 23-461): as the sequence (Q16602 23-461) above
# Chain of adrenomedullin receptor (O60895 43-175): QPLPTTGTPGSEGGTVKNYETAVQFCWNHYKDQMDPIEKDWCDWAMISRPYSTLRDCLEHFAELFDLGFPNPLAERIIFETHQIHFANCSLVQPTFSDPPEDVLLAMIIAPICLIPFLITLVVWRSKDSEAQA
# [5] = test system: NIH/Swiss mice; test: acute food intake assay in overnight-fasted mice, IP injection; assay type: in vivo, mouse; settings: for FI 30 min ED50 / FI 60 min ED50: food intake
# Description: The effect of AFP-6 on food intake was investigated using an acute food intake assay. This assay measured food consumption in lean, group-housed, overnight-fasted NIH/Swiss mice. 12 mice were housed 3 to a cage. The sample compound, in this case AFP-6, was injected IP in mice and food intake was measured during the next 2-hours. Decreased, as well as increased, food intake can be measured. Testing various doses of the compound generated ED50's. The assay was performed as follows: 1. Remove food (water ad libitum) at 5:00 pm the evening before the study. 2. Weigh food pellets (3 pellets/cage). 3. Inject animals intraperitoneally with 200 ul of appropriate solution, t=0. 4. Immediately add pre-weighed food to each cage (away from water bottle spout) and allow animals to feed undisturbed. 5. At 30, 60, and 120 minutes, collect and weigh food. 6. Analyze data. Data points represent mean ±sd of n=12.
# Twelve mice were injected IP at t=0 for each dose, 0.3, 1, 3, 10, 30, 100, or 300 nmol/kg of AFP-6 (Amylin Pharmaceuticals, Inc.) (n=12/group). Food was introduced immediately after injection and amount consumed measured at t=30, 60, and 120 min.
# [6] = test system: Sprague-Dawley rats; test: 1-week continuous subcutaneous infusion in high fat-fed rats: food intake and body weight; assay type: in vivo, rat; settings: 75 nmol/kg/day
# Excerpt: Individually housed male Sprague-Dawley® rats (beginning weight=310 g; 12-h light/dark cycle) were maintained on a high fat (HF) diet (Research Diet 58% kcal from fat). Rats were fattened for 34 days. At the end of the fattening period, 7-day osmotic pumps (Durect Corp.) were implanted interscapularly under anesthesia (body weight at time of implant=403 g). The rats received pumps delivering compound or vehicle (50% DMSO). The following compounds were examined at a 75 nmol/kg/day dose: AFP-6, and an AFP-6 analog SEQ ID NO:32. Food intake and body weight measurements were obtained on day 2 and day 7. Group differences were analyzed using analysis of variance (ANOVA) and Fisher's Least-Significant Difference test.
Compound,pIC50 [1],pIC50 ([2]; Table 6),pIC50 [3],pIC50 [4],also measured
"Rat calcitonin: rat calcitonin, reference peptide in the food intake assay (CGNLSTCMLGTYTQDLNKFHTFPQTSIGVGAP; ends and bridges not checked; cysteine pairing not given here; UniProt P01257 85-116, looked up)",,,,,"inhibition of food intake ([5]; 0.63 mg/kg, mice, not significant): 16%"
TQAQLLRVGCVLGTCQVQNLSHRLWQLMGPAGRQESAPVEPSSPHSY-NH2 (cysteine pairing not given here) [SEQ ID NO: 32],,,,,body weight gain compared to Vehicle ([6]; Day 7): significantly less body weight gain than Vehicle; percent body weight loss (vehicle-corrected) ([6]; Day 7): 2.1%; food intake compared to Vehicle ([6]; after 2 days of treatment): significantly reduced food intake
r/h Adrenomedullin: Amylin Family polypeptide of Table 3; r/h not resolved per value,,,,,FI 30 min ED50 [5]: 18 nmol/kg; FI 60 min ED50 [5]: 13 nmol/kg
"r/h Amylin: Amylin Family polypeptide of Table 3; r/h not resolved per value (KCNTATCATQRLANFLVHSSNNFGAILSSTNVGSNTY; Islet amyloid polypeptide; UniProt P10997 34-70, looked up)",,,,,"pIC50 ([2]; read-out: IC50 CGRP RBA, Table 3): 7.92; FI 30 min ED50 [5]: 11 to 25 nmol/kg; FI 60 min ED50 [5]: 25 to 33 nmol/kg"

# Further lines, with some results ahead:
pIC50 [1],pIC50 ([2]; Table 6),pIC50 [3],pIC50 [4],Compound,also measured
< 6.00,< 6.00,< 6.00,7.23,VQNLSHRLWQLMGPAGRQDSAPVDPSSPHSY-NH2 [compound 14],
7.92,7.74,7.29,≤ 6.00,CC(C)C[C@H](NC(=O)[C@H](CCC(N)=O)NC(=O)[C@H](Cc1c[nH]c2ccccc12)NC(=O)[C@H](CC(C)C)NC(=O)[C@H](CCCNC(=N)N)NC(=O)[C@H](Cc1c[nH]cn1)NC(=O)[C@H](CO)NC(=O)[C@H](CC(C)C)NC(=O)[C@H](CC(N)=O)NC(=O)[C@H](CCC(N)=O)NC(=O)[C@@H](NC(=O)[C@H](CCC(N)=O)NC(=O)[C@@H]1CSSC[C@H](NC(=O)CN)C(=O)N[C@@H](CC(N)=O)C(=O)N[C@@H]([C@@H](C)O)C(=O)N[C@@H](C)C(=O)N[C@@H]([C@@H](C)O)C(=O)N1)C(C)C)C(=O)N[C@@H](CCCNC(=N)N)C(=O)N[C@@H](CCC(N)=O)C(=O)N[C@@H](CC(=O)O)C(=O)N[C@@H](CO)C(=O)N[C@@H](C)C(=O)N1CCC[C@H]1C(=O)N[C@H](C(=O)N[C@@H](CC(=O)O)C(=O)N1CCC[C@H]1C(=O)N[C@@H](CO)C(=O)N[C@@H](CO)C(=O)N1CCC[C@H]1C(=O)N[C@@H](Cc1c[nH]cn1)C(=O)N[C@@H](CO)C(=O)N[C@@H](Cc1ccc(O)cc1)C(N)=O)C(C)C [compound 31] (H-GCNTATCQVQNLSHRLWQLRQDSAPVDPSSPHSY-NH2; disulfide 2-7 (inferred); N-terminus assumed),
,7.43,6.89,≤ 6.00,CC(C)C[C@H](NC(=O)[C@H](CCC(N)=O)NC(=O)[C@H](Cc1c[nH]c2ccccc12)NC(=O)[C@H](CC(C)C)NC(=O)[C@H](CCCNC(=N)N)NC(=O)[C@H](Cc1c[nH]cn1)NC(=O)[C@H](CO)NC(=O)[C@H](CC(C)C)NC(=O)[C@H](CC(N)=O)NC(=O)[C@H](CCC(N)=O)NC(=O)[C@@H](NC(=O)[C@H](CCC(N)=O)NC(=O)[C@@H]1CSSC[C@H](NC(=O)[C@@H](N)C(C)C)C(=O)N[C@@H](CC(N)=O)C(=O)N[C@@H]([C@@H](C)O)C(=O)N[C@@H](C)C(=O)N[C@@H]([C@@H](C)O)C(=O)N1)C(C)C)C(=O)N[C@@H](CCCNC(=N)N)C(=O)N[C@@H](CCC(N)=O)C(=O)N[C@@H](CC(=O)O)C(=O)N[C@@H](CO)C(=O)N[C@@H](C)C(=O)N1CCC[C@H]1C(=O)N[C@H](C(=O)N[C@@H](CC(=O)O)C(=O)N1CCC[C@H]1C(=O)N[C@@H](CO)C(=O)N[C@@H](CO)C(=O)N1CCC[C@H]1C(=O)N[C@@H](Cc1c[nH]cn1)C(=O)N[C@@H](CO)C(=O)N[C@@H](Cc1ccc(O)cc1)C(N)=O)C(C)C [compound 30] (H-VCNTATCQVQNLSHRLWQLRQDSAPVDPSSPHSY-NH2; disulfide 2-7 (inferred)),
8.62,7.46,8.14,7.72,H-RVGCGNLSTCQVQNLSHRLWQLMGPAGRQDSAPVDPSSPHSY-NH2 (disulfide 4-10 (inferred)) [compound 22],
< 6.00,< 6.00,< 6.00,≤ 6.00,CC(C)C[C@H](NC(=O)[C@H](CCC(N)=O)NC(=O)[C@H](Cc1c[nH]c2ccccc12)NC(=O)[C@H](CC(C)C)NC(=O)[C@H](CCCNC(=N)N)NC(=O)[C@H](Cc1c[nH]cn1)NC(=O)[C@H](CO)NC(=O)[C@H](CC(C)C)NC(=O)[C@H](CC(N)=O)NC(=O)[C@H](CCC(N)=O)NC(=O)[C@@H](NC(=O)[C@H](CCC(N)=O)NC(=O)[C@@H]1CSSC[C@H](NC(=O)CN)C(=O)N[C@@H](C(C)C)C(=O)N[C@@H](CC(C)C)C(=O)NCC(=O)N[C@@H]([C@@H](C)O)C(=O)N1)C(C)C)C(=O)N[C@@H](CCCNC(=N)N)C(=O)N[C@@H](CCC(N)=O)C(=O)N[C@@H](CCC(=O)O)C(=O)N[C@@H](CO)C(=O)N[C@@H](C)C(=O)N1CCC[C@H]1C(=O)N[C@H](C(=O)N[C@@H](CCC(=O)O)C(=O)N1CCC[C@H]1C(=O)N[C@@H](CO)C(=O)N[C@@H](CO)C(=O)N1CCC[C@H]1C(=O)N[C@@H](Cc1c[nH]cn1)C(=O)N[C@@H](CO)C(=O)N[C@@H](Cc1ccc(O)cc1)C(N)=O)C(C)C [compound 40] (H-GCVLGTCQVQNLSHRLWQLRQESAPVEPSSPHSY-NH2; disulfide 2-7),
< 6.00,< 6.00,< 6.00,≤ 6.00,H-VGMVLGTMQVQNLSHRLWQLRQDSAPVDPSSPHSY-NH2 [compound 27],
,< 6.00,7.51,≤ 6.00,CC(C)C[C@@H]1NC(=O)[C@H](CC(N)=O)NC(=O)CNC(=O)[C@@H](NC(=O)CN)CSSC[C@@H](C(=O)N[C@@H](CCC(N)=O)C(=O)N[C@H](C(=O)N[C@@H](CCC(N)=O)C(=O)N[C@@H](CC(N)=O)C(=O)N[C@@H](CC(C)C)C(=O)N[C@@H](CO)C(=O)N[C@@H](Cc2c[nH]cn2)C(=O)N[C@@H](CCCNC(=N)N)C(=O)N[C@@H](CC(C)C)C(=O)N[C@@H](Cc2c[nH]c3ccccc23)C(=O)N[C@@H](CCC(N)=O)C(=O)N[C@@H](CC(C)C)C(=O)N[C@@H](CCCNC(=N)N)C(=O)N[C@@H](CCC(N)=O)C(=O)N[C@@H](CC(=O)O)C(=O)N[C@@H](CO)C(=O)N[C@@H](C)C(=O)N2CCC[C@H]2C(=O)N[C@H](C(=O)N[C@@H](CCC(=O)O)C(=O)N2CCC[C@H]2C(=O)N[C@@H](CO)C(=O)N[C@@H](CO)C(=O)N2CCC[C@H]2C(=O)N[C@@H](Cc2c[nH]cn2)C(=O)N[C@@H](CO)C(=O)N[C@@H](Cc2ccc(O)cc2)C(N)=O)C(C)C)C(C)C)NC(=O)[C@H]([C@@H](C)O)NC(=O)[C@H](CO)NC1=O [compound 39] (H-GCGNLSTCQVQNLSHRLWQLRQDSAPVEPSSPHSY-NH2; disulfide 2-8 (inferred); N-terminus assumed),
